Patent US20210267731A1, “COMPOSITION FOR TREATING AND PREVENTING GINGIVOPERIODONTITIS OR PERI-IMPLANTITIS, AND INTERDENTAL BRUSH COATED WITH SAME” (NIBEC CO., LTD., priority 2018, published 2021)
Ends that are not written are not given here.

Assays:
[1] = Test of lipopolysaccharide removal effect of nonionic surfactants; settings: compared with other nonionic surfactants (polyoxyethylene, Tween series, span series)
Description: Octyl phenol ethoxylate (C14H22O (C2H4O)n) is a nonionic surfactant, has a hydrophilic polyethylene oxide group and a hydrophobic 4-(1,1,3,3-tetramethylbutyl)-phenyl group, and is widely used as a detergent in the biochemical field. In immunostaining, octyl phenol ethoxylate permeabilizes the cell membrane at a concentration of 0.1 to 0.5%, and permeabilizes the cell wall of bacteria at a concentration of 1%. In the present invention, octyl phenol ethoxylate has an effect of removing lipopolysaccharide (LPS). Other nonionic surfactants widely used in this technical field include polyoxyethylene, Tween series, span series and the like.

[2] = system: Prevotella intermedia; assay: Antimicrobial experiment, liquid dilution method, colony count; assay type: cell-based
Method: In order to determine the effect of the composition containing the antimicrobial peptide, an antimicrobial experiment was conducted according to the liquid dilution method. Prevotella intermedia, which is a bacterium causative of periodontal disease, was cultured in Tryptic soy broth. The above strain was cultured until the absorbance at 620 nm reached 1, and then the cells were collected and used in the experiment. The cells were diluted with PBS, bacteria were plated at 10^5-10^7/mL on a tryptic soy agar (TSA) plate, and incubated at 37° C. for 24 hours. In order to measure the antimicrobial activity of the peptides using a liquid dilution method, 1 ml of distilled water was added to a microtube, 10 µl of diluted bacterial solution was added thereto and 50 μl of the product was plated on a plate medium which was used as a control group.
After treatment with 50 μg/ml and 100 μg/ml of the peptide of SEQ ID NO: […] and 100 μg/ml of the peptide of SEQ ID NO: 2 at 37° C. for 1 hour, 50 μl of each of the product was plated and the number of colonies that formed was counted. In addition, the antimicrobial activity of the composition of Example 1, a composition containing the composition of Example 1 and the peptide of SEQ ID NO: 1, and a composition containing the composition of Example 1 and the peptide of SEQ ID NO: 2 was measured in the same manner as above.

Substance	lipopolysaccharide removal effect [1]	antimicrobial activity ([2]; among peptides of SEQ ID NO: 1 to SEQ ID NO: 4)	antimicrobial activity of peptide (colonies formed) ([2]; peptide at 100 μg/ml, 37° C., 1 hour, FIG. 6)
octyl phenol ethoxylate	greatest lipopolysaccharide removal effect	–	–
GKSST RGRKS CRRKK-NH2 (GKSSTRGRKSCRRKK-NH2) [peptide of SEQ ID NO: 2, antimicrobial peptide]	–	best antimicrobial activity	the highest
